# In patent US8084466B2, “Bicyclic heteroaryl-substituted imidazoles as modulators of the histamine H4 receptor” (Janssen Pharmaceutica NV, priority 2007, dated 2011):
# Molecular target: T1, human histamine H4 receptor (Homo sapiens, UniProt Q9H3N8)
# T1 construct: expressed in transfected cells; host or cells: SK-N-MC cells or COS7 cells, transient transfection with pH4R; cell membranes
# Test: Binding Assay on Recombinant Human Histamine H4 Receptor
# Conditions: competition binding with 3H-histamine (5 nM; KD 5 nM), membranes of SK-N-MC or COS7 cells expressing human H4 receptor; average of results; > = highest value tested
# Procedure: Biological Methods: Binding Assay on Recombinant Human Histamine H4 Receptor
# SK-N-MC cells or COS7 cells were transiently transfected with pH4R and grown in 150 cm^2 tissue culture dishes. Cells were washed with saline solution, scraped with a cell scraper and collected by centrifugation (1000 rpm, 5 min). Cell membranes were prepared by homogenization of the cell pellet in 20 mM Tris-HCl with a polytron tissue homogenizer for 10 sec at high speed. Homogenate was centrifuged at 1000 rpm for 5 min at 4° C. The supernatant was then collected and centrifuged at 20,000×g for 25 min at 4° C. The final pellet was resuspended in 50 mM Tris-HCl. Cell membranes were incubated with ^3H-histamine (5-70 nM) in the presence or absence of excess histamine (10,000 nM). Incubation occurred at room temperature for […]. Membranes were harvested by rapid filtration over Whatman GF/C filters and washed 4 times with ice-cold 50 mM Tris HCl. Filters were then dried, mixed with scintillant and counted for radioactivity. SK-N-MC or COS7 cells expressing human histamine H4 receptor were used to measure the affinity of binding of other compounds and their ability to displace ^3H-ligand binding by incubating the above-described reaction in the presence of various concentrations of inhibitor or compound to be tested. For competition binding studies using ^3H-histamine, Ki values were calculated, based on an experimentally determined KD value of 5 nM and a ligand concentration of 5 nM, according to Y.-C.
row,Ki [nM],Compound
1,102,"CN1CCC(CCCCn2ccc3c(-c4nc5c(F)cc(F)cc5[nH]4)cccc32)CC1 [Example 70, 4,6-Difluoro-2-{1-[4-(1-methyl-piperidin-4-yl)-butyl]-1H-indol-4-yl}-1H-benzoimidazole]"
2,802,"CN1CCC(CCCCn2ccc3c(-c4nc5ccc6ccccc6c5[nH]4)cccc32)CC1 [Example 71, 2-{1-[4-(1-Methyl-piperidin-4-yl)-butyl]-1H-indol-4-yl}-1H-naphtho[1,2-d]imidazole]"
3,545,"CN1CCC(CCCCn2cc(Cl)c3c(-c4nc5cccc(C(=O)c6ccccc6)c5[nH]4)cccc32)CC1 [Example 72, (2-{3-Chloro-1-[4-(1-methyl-piperidin-4-yl)-butyl]-1H-indol-4-yl}-3H-benzoimidazol-4-yl)-phenyl-methanone]"
4,1710,"Cc1ccc2[nH]c(-c3cccc4c3c(Cl)cn4CCCCC3CCNCC3)nc2c1C [Example 73, 2-[3-Chloro-1-(4-piperidin-4-yl-butyl)-1H-indol-4-yl]-4,5-dimethyl-1H-benzoimidazole]"
5,1670,"Cc1ccc2[nH]c(-c3cccc4c3c(Cl)cn4CCCCC3CCN(C)CC3)nc2c1C [Example 74, 2-{3-Chloro-1-[4-(1-methyl-piperidin-4-yl)-butyl]-1H-indol-4-yl}-4,5-dimethyl-1H-benzoimidazole]"
6,1000,"CN1CCC(CCCCn2cc(Cl)c3c(-c4nc5c(F)c(F)ccc5[nH]4)cccc32)CC1 [Example 75, 2-{3-Chloro-1-[4-(1-methyl-piperidin-4-yl)-butyl]-1H-indol-4-yl}-4,5-difluoro-1H-benzoimidazole]"
7,1940,"c1cc(-c2nc3cc4c(cc3[nH]2)OCO4)c2ccn(CCCCC3CCNCC3)c2c1 [Example 76, 6-[1-(4-Piperidin-4-yl-butyl)-1H-indol-4-yl]-5H-[1,3]dioxolo[4′,5′:4,5]-benzo[1,2-d]imidazole]"
8,1670,"O=C(c1ccccc1)c1ccc2[nH]c(-c3cccc4c3ccn4CCCCC3CCNCC3)nc2c1 [Example 77, Phenyl-{2-[1-(4-piperidin-4-yl-butyl)-1H-indol-4-yl]-1H-benzoimidazol-5-yl}-methanone]"
9,154,"Cc1ccc2[nH]c(-c3cccc4c3ccn4CCCCC3CCN(C)CC3)nc2c1C [Example 78, 4,5-Dimethyl-2-{1-[4-(1-methyl-piperidin-4-yl)-butyl]-1H-indol-4-yl}-1H-benzoimidazole]"
10,228,"Cc1[nH]c(-c2ccc3c(ccn3CCCN3CCN(C)CC3)c2)nc1-c1cccc(C(F)(F)F)c1 [Example 79, 1-[3-(4-Methyl-piperazin-1-yl)-propyl]-5-[5-methyl-4-(3-trifluoromethyl-phenyl)-1H-imidazol-2-yl]-1H-indole]"
11,1980,"Cc1[nH]c(-c2ccc3c(ccn3CCCN3CCN(C)CC3)c2)nc1-c1ccc(Cl)cc1 [Example 80, 5-[4-(4-Chloro-phenyl)-5-methyl-1H-imidazol-2-yl]-1-[3-(4-methyl-piperazin-1-yl)-propyl]-1H-indole]"
12,953,"CCCc1[nH]c(-c2ccc3c(ncn3CCCC3CCN(C)CC3)c2C)nc1C [Example 81, 4-Methyl-1-[3-(1-methyl-piperidin-4-yl)-propyl]-5-(4-methyl-5-propyl-1H-imidazol-2-yl)-1H-benzoimidazole]"
13,0.3,"Cc1nc(-c2ccc3c(ncn3CCCC3CCN(C)CC3)c2C)[nH]c1-c1ccc(C(F)(F)F)cc1 [Example 82, 4-Methyl-1-[3-(1-methyl-piperidin-4-yl)-propyl]-5-[4-methyl-5-(4-trifluoromethyl-phenyl)-1H-imidazol-2-yl]-1H-benzoimidazole]"
14,0.3,"Cc1nc(-c2ccc3c(ncn3CCCC3CCN(C)CC3)c2C)[nH]c1-c1cc(Cl)cc(Cl)c1 [Example 83, 5-[5-(3,5-Dichloro-phenyl)-4-methyl-1H-imidazol-2-yl]-4-methyl-1-[3-(1-methyl-piperidin-4-yl)-propyl]-1H-benzoimidazole]"
15,8,"Cc1c(-c2nc(C(F)(F)F)c(-c3ccccc3)[nH]2)ccc2c1ncn2CCCC1CCN(C)CC1 [Example 84, 4-Methyl-1-[3-(1-methyl-piperidin-4-yl)-propyl]-5-(5-phenyl-4-trifluoromethyl-1H-imidazol-2-yl)-1H-benzoimidazole]"
16,5,Cc1ccc(-c2nc(-c3ccc4c(ncn4CCCC4CCN(C)CC4)c3C)[nH]c2-c2ccc(Cl)cc2)cc1 [Example 85]
17,> 10000,"Cc1c(F)ccc2[nH]c(-c3ccc4c(c3)c(CN(C)C)cn4CCCC3CCN(C)CC3)nc12 [Example 86, {5-(5-Fluoro-4-methyl-1H-benzoimidazol-2-yl)-1-[3-(1-methyl-piperidin-4-yl)-propyl]-1H-indol-3-ylmethyl}-dimethyl-amine]"
18,1830,"Cc1c(F)ccc2[nH]c(-c3ccc4c(c3)c(Cl)cn4CCCC3CCNCC3)nc12 [Example 87, 2-[3-Chloro-1-(3-piperidin-4-yl-propyl)-1H-indol-5-yl]-5-fluoro-4-methyl-1H-benzoimidazole]"
19,> 10000,"Cc1c(F)ccc2[nH]c(-c3ccc4c(c3)c(Cl)cn4CCCC3CCN(C)CC3)nc12 [Example 88, 2-{3-Chloro-1-[3-(1-methyl-piperidin-4-yl)-propyl]-1H-indol-5-yl}-5-fluoro-4-methyl-1H-benzoimidazole]"
20,2000,"Cc1cc(C)c2nc(-c3ccc4c(c3)c(C)c(C)n4CCCC3CCNCC3)[nH]c2c1 [Example 89, 2-[2,3-Dimethyl-1-(3-piperidin-4-yl-propyl)-1H-indol-5-yl]-4,6-dimethyl-1H-benzoimidazole]"
21,2000,"Cc1c(C)n(CCCC2CCNCC2)c2ccc(-c3nc4c(C)c(F)ccc4[nH]3)cc12 [Example 90, 2-[2,3-Dimethyl-1-(3-piperidin-4-yl-propyl)-1H-indol-5-yl]-5-fluoro-4-methyl-1H-benzoimidazole]"
22,762,"Cc1c(F)ccc2[nH]c(-c3cnc4c(ccn4CCCC4CCNCC4)c3)nc12 [Example 91, 5-Fluoro-4-methyl-2-[1-(3-piperidin-4-yl-propyl)-1H-pyrrolo[2,3-b]pyridin-5-yl]-1H-benzoimidazole]"
23,353,CN1CCC(CCCn2ccc3cc(-c4nc5cc(C(C)(C)C)ccc5[nH]4)cnc32)CC1 [Example 92]
24,1100,"Cc1c(F)ccc2[nH]c(-c3ccc4c(c3)CCN4CCCC3CCNCC3)nc12 [Example 93, 5-Fluoro-4-methyl-2-[1-(3-piperidin-4-yl-propyl)-2,3-dihydro-1H-indol-5-yl]-1H-benzoimidazole]"
25,600,"Clc1ccc2[nH]c(-c3ccc4c(c3)CCN4CCCC3CCNCC3)nc2c1 [Example 94, 5-Chloro-2-[1-(3-piperidin-4-yl-propyl)-2,3-dihydro-1H-indol-5-yl]-1H-benzoimidazole]"
26,390,"Cc1cccc2[nH]c(-c3ccc4c(c3)CCN4CCCC3CCNCC3)nc12 [Example 95, 4-Methyl-2-[1-(3-piperidin-4-yl-propyl)-2,3-dihydro-1H-indol-5-yl]-1H-benzoimidazole]"
27,103,"Cc1c(F)ccc2[nH]c(-c3ccc4c(c3)CCN4CCCC3CCN(C)CC3)nc12 [Example 96, 5-Fluoro-4-methyl-2-{1-[3-(1-methyl-piperidin-4-yl)-propyl]-2,3-dihydro-1H-indol-5-yl}-1H-benzoimidazole]"
28,43,"CN1CCC(CCCN2CCc3cc(-c4nc5cc(Cl)ccc5[nH]4)ccc32)CC1 [Example 97, 5-Chloro-2-{1-[3-(1-methyl-piperidin-4-yl)-propyl]-2,3-dihydro-1H-indol-5-yl}-1H-benzoimidazole]"
